# Measured values as given in ChEMBL document CHEMBL5154914, “Discovery of Pentacyclic Triterpenoid PROTACs as a Class of Effective Hemagglutinin Protein Degraders” (J Med Chem, 2022).
# The source made the active and inactive calls. The calls are words filed in the database; no cut-off is given here.
# Key:
# [1] = target: T1, von Hippel-Lindau disease tumor suppressor/Hemagglutinin (Homo sapiens, UniProt P03452+P40337); experiment: Protac activity at VHL (unknown origin)/influenza A hemagglutinin transfected in HEK293T cells assessed as degradation of hemagglutinin incubated for 10 hrs by Western blot analysis; type: cell-based
# HEK-293T = experiment: Cytotoxicity against HEK293T cells assessed as reduction in cell viability at 50 uM incubated for 36 hrs by Celltiter-Glo assay; type: toxicity, cell-based; conditions: human
# [2] = target: T1, von Hippel-Lindau disease tumor suppressor/Hemagglutinin; experiment: Protac activity at VHL (unknown origin)/influenza A hemagglutinin transfected in HEK293T cells assessed as degradation of hemagglutinin at 0.39 to 25 uM incubated for 10 hrs by Western blot analysis; type: cell-based; conditions: dose 0.39-25 µM
# Target sequence in this assay (P03452 whole entry, looked up): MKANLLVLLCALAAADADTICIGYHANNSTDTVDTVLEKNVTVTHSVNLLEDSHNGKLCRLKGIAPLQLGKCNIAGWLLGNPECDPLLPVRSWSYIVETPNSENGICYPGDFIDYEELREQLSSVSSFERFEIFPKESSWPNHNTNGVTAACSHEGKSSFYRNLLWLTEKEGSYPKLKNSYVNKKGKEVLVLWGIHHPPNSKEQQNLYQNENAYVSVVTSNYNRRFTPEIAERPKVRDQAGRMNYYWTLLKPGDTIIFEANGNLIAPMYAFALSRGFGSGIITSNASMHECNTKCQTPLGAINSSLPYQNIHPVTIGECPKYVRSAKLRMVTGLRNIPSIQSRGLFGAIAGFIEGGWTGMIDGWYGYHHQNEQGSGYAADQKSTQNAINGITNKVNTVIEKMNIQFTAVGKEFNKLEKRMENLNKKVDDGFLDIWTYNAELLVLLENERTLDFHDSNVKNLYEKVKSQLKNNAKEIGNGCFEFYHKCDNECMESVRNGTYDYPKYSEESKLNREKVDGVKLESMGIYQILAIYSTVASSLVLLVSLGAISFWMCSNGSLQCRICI
# Target sequence in this assay (P40337 whole entry, looked up): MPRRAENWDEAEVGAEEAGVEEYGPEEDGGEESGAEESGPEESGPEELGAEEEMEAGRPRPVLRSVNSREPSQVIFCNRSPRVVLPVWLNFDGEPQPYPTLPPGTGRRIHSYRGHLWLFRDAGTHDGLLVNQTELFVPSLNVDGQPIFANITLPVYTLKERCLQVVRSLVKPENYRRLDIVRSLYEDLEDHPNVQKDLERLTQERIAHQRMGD
# [3] = target: T1, von Hippel-Lindau disease tumor suppressor/Hemagglutinin; experiment: Protac activity at VHL (unknown origin)/influenza A hemagglutinin transfected in HEK293T cells assessed as degradation of hemagglutinin incubated for 24 hrs by Western blot analysis; type: cell-based; conditions: dose 0.03-33.3 µM, DDE = dose-dependent effect
# Target sequence in this assay (P03452 whole entry, looked up): as the sequence (P03452 whole entry, looked up) above
# Target sequence in this assay (P40337 whole entry, looked up): as the sequence (P40337 whole entry, looked up) above
# [4] = target: T1, von Hippel-Lindau disease tumor suppressor/Hemagglutinin; experiment: Protac activity at VHL (unknown origin)/influenza A hemagglutinin transfected in HEK293T cells assessed as degradation of hemagglutinin at 33 uM incubated for 24 hrs by Western blot analysis relative to control; type: cell-based
# Target sequence in this assay (P03452 whole entry, looked up): as the sequence (P03452 whole entry, looked up) above
# Target sequence in this assay (P40337 whole entry, looked up): as the sequence (P40337 whole entry, looked up) above
# [5] = target: T1, von Hippel-Lindau disease tumor suppressor/Hemagglutinin; experiment: Protac activity at VHL (unknown origin)/influenza A hemagglutinin transfected in HEK293T cells assessed as degradation of hemagglutinin incubated for 12 hrs by Western blot analysis; type: cell-based; conditions: dose 0.39-25 µM, DDE = dose-dependent effect
# Target sequence in this assay (P03452 whole entry, looked up): as the sequence (P03452 whole entry, looked up) above
# Target sequence in this assay (P40337 whole entry, looked up): as the sequence (P40337 whole entry, looked up) above
# [6] = target: T2, Protein cereblon/Hemagglutinin (Influenza A virus) (UniProt B4URE7+Q96SW2); experiment: Protac activity at CRBN (unknown origin)/Influenza A hemagglutinin transfected in HEK293T cells assessed as induction of hemagglutinin degradation at 0.78 uM incubated for 24 hrs by Western blot analysis relative to control; type: cell-based
# [7] = target: T2, Protein cereblon/Hemagglutinin (Influenza A virus); experiment: Protac activity at CRBN (unknown origin)/Influenza A hemagglutinin transfected in HEK293T cells assessed as induction of hemagglutinin degradation at 50 uM incubated for 12 hrs by Western blot analysis relative to control; type: cell-based
# [8] = target: von Hippel-Lindau disease tumor suppressor (Homo sapiens, UniProt P40337); experiment: Binding affinity to human recombinant VHL assessed as dissociation constant by SPR assay
# von Hippel-Lindau disease tumor suppressor, sequence (P40337 whole entry): as the sequence (P40337 whole entry, looked up) above
# [9] = Oral bioavailability in BALB/c mouse infected with Influenza A A/WSN/33 (H1N1) virus at 50 mg/kg measured after 24 hrs by LC-MS analysis; type: ADME, organism-based; conditions: in vivo
# [10] = Tmax in BALB/c mouse infected with Influenza A A/WSN/33 (H1N1) virus at 50 mg/kg, po administered as single dose measured after 24 hrs by LC-MS analysis; type: ADME, organism-based; conditions: in vivo
# [11] = Elimination half life in BALB/c mouse infected with Influenza A A/WSN/33 (H1N1) virus at 50 mg/kg, po measured after 24 hrs by LC-MS analysis; type: ADME, organism-based; conditions: in vivo, read-out: LambdaZ (converted)
# [12] = Elimination half life in BALB/c mouse infected with Influenza A A/WSN/33 (H1N1) virus at 10 mg/kg, iv measured after 24 hrs by LC-MS analysis; type: ADME, organism-based; conditions: in vivo, read-out: LambdaZ (converted)
# Hemagglutinin = Hemagglutinin (Influenza A virus, UniProt B4URE7); experiment: Binding affinity to recombinant influenza A hemagglutinin assessed as dissociation constant by SPR assay
# [13] = AUCinfinity in BALB/c mouse infected with Influenza A A/WSN/33 (H1N1) virus at 10 mg/kg, iv measured after 24 hrs by LC-MS analysis; type: ADME, organism-based; design: dose 10 mg/kg, time 24 hrs, route iv; conditions: in vivo
# [14] = target: T1, von Hippel-Lindau disease tumor suppressor/Hemagglutinin; experiment: Protac activity at VHL (unknown origin)/influenza A hemagglutinin transfected in HEK293T cells assessed as degradation of hemagglutinin incubated for 7 to 10 hrs by Western blot analysis; type: cell-based; conditions: time 7-10 hrs
# Target sequence in this assay (P03452 whole entry, looked up): as the sequence (P03452 whole entry, looked up) above
# Target sequence in this assay (P40337 whole entry, looked up): as the sequence (P40337 whole entry, looked up) above
# [15] = target: T1, von Hippel-Lindau disease tumor suppressor/Hemagglutinin; experiment: Protac activity at VHL (unknown origin)/influenza A hemagglutinin transfected in HEK293T cells assessed as accumulation of ubiquitinated hemagglutinin at 20 uM preincubated for 4 hrs followed by proteosome inhibitor, MG-132 addition and measured after 4 hrs by Immunoprecipitation analysis; type: cell-based
# Target sequence in this assay (P03452 whole entry, looked up): as the sequence (P03452 whole entry, looked up) above
# Target sequence in this assay (P40337 whole entry, looked up): as the sequence (P40337 whole entry, looked up) above
# [16] = target: T1, von Hippel-Lindau disease tumor suppressor/Hemagglutinin; experiment: Protac activity at VHL (unknown origin)/influenza A hemagglutinin transfected in HEK293T cells assessed as reduction in hemagglutinin level at 10 uM by immunoblotting analysis relative to control; type: cell-based; design: scale not given: the % may be the effect or the level left
# Influenza A virus [17] = experiment: Antiviral activity against Influenza A A/WSN/33 (H1N1) infected in HEK293T cells incubated for 12 hrs; type: functional, organism-based; conditions: HEK-293T
# Influenza A virus [18] = experiment: Antiviral activity against Influenza A A/California/08/2009 (H1N1) infected in HEK293T cells incubated for 12 hrs; type: functional, organism-based; conditions: HEK-293T
# Influenza A virus [19] = experiment: Antiviral activity against Influenza A A/WSN/33 (H1N1) infected in BALB/c mouse assessed as recovery of body weight at 10 to 20 mg/kg/day, iv administered for 5 days starting from 2 hrs post infection and measured daily for 14 days; type: functional, organism-based; conditions: dose 10-20 mg/kg/day, time 14.0 day
# Influenza A virus [20] = experiment: Antiviral activity against Influenza A A/Aichi/2/68 (H3N2) infected in HEK293T cells incubated for 12 hrs; type: functional, organism-based; conditions: HEK-293T
# Influenza B virus = experiment: Antiviral activity against Influenza B B/Florida/4/2006 infected in HEK293T cells incubated for 12 hrs; type: functional, organism-based; conditions: B/Florida/4/2006, HEK-293T
# [21] = Cmax in BALB/c mouse infected with Influenza A A/WSN/33 (H1N1) virus at 10 mg/kg, iv measured after 24 hrs by LC-MS analysis; type: ADME, organism-based; design: time 24 hrs, dose 10 mg/kg, route iv; conditions: in vivo
# [22] = Cmax in BALB/c mouse infected with Influenza A A/WSN/33 (H1N1) virus at 50 mg/kg, po measured after 24 hrs by LC-MS analysis; type: ADME, organism-based; design: time 24 hrs, dose 50 mg/kg, route po; conditions: in vivo
# [23] = AUCinfinity in BALB/c mouse infected with Influenza A A/WSN/33 (H1N1) virus at 50 mg/kg, po measured after 24 hrs by LC-MS analysis; type: ADME, organism-based; design: time 24 hrs, dose 50 mg/kg, route po; conditions: in vivo
# [24] = MRT in BALB/c mouse infected with Influenza A A/WSN/33 (H1N1) virus at 10 mg/kg, iv measured after 24 hrs by LC-MS analysis; type: ADME, organism-based; conditions: in vivo
# [25] = MRT in BALB/c mouse infected with Influenza A A/WSN/33 (H1N1) virus at 50 mg/kg, po measured after 24 hrs by LC-MS analysis; type: ADME, organism-based; conditions: in vivo
# [26] = Acute toxicity in BALB/c mouse infected with Influenza A A/WSN/33 (H1N1) virus assessed as decrease in body weight at 10 to 20 mg/kg/day, iv administered for 5 days starting from 2 hrs post infection and measured daily for 14 days; type: organism-based; conditions: in vivo, 336 h, dose 10-20 mg/kg/day, time 14 day
# [27] = Acute toxicity in BALB/c mouse infected with Influenza A A/WSN/33 (H1N1) virus assessed as mortality at 10 to 20 mg/kg/day, iv administered for 5 days starting from 2 hrs post infection and measured daily for 14 days; type: organism-based; conditions: in vivo, 336 h, dose 10-20 mg/kg/day, time 14 day
# Influenza A virus [28] = experiment: Antiviral activity against Influenza A A/WSN/33 (H1N1) infected in BALB/c mouse assessed as plaque reduction at 10 to 20 mg/kg/day, iv incubated for 4 to 16 days (reference value: 2.7x10^6 PFU/g); type: functional; conditions: dose 10-20 mg/kg/day, time 4-16 day
# Influenza A virus [29] = experiment: Antiviral activity against Influenza A A/WSN/33 (H1N1) infected in BALB/c mouse assessed as reduction in virus induced lung lesion at 10 mg/kg, iv measured on day 4 by histopathological staining based analysis; type: functional, organism-based; conditions: time 4.0 day
# Influenza A virus [30] = experiment: Antiviral activity against Influenza A A/WSN/33 (H1N1) infected in BALB/c mouse assessed as reduction in virus induced inflammation at 10 mg/kg, iv measured on day 4 by histopathological staining based analysis; type: functional, organism-based; conditions: time 4.0 day
# Influenza A virus [31] = experiment: Antiviral activity against Influenza A A/WSN/33 (H1N1) infected in BALB/c mouse assessed as fold reduction plaque count at 10 to 20 mg/kg/day, iv incubated for 4 to 16 days relative to control; type: functional; conditions: dose 10-20 mg/kg/day, time 4-16 day
# [32] = Cytotoxicity against HEK293T cells assessed as cell viability at 50 uM incubated for 36 hrs by Celltiter-Glo assay relative to control; type: toxicity, cell-based, HEK-293T; conditions: human, read-out: Activity
# Influenza A virus [33] = experiment: Antiviral activity against influenza A A/WSN/33 (H1N1) infected in HEK293T cells assessed as reduction in hemagglutinin level at virion replication and release stage at 25 uM mesured after 3 to 9 hrs by immunofluorescence based confocal microscopic analysis; type: functional, organism-based; conditions: time 3-9 hrs
# Influenza A virus [34] = experiment: Antiviral activity against Influenza A A/WSN/33 (H1N1) infected in dog MDCK cells assessed as inhibition of viral induced cytopathic effect incubated for 40 hrs by CellTiter-Glo assay; type: functional, organism-based
structure (smiles),measurement,setting,value
Cc1ncsc1-c1ccc(CNC(=O)[C@@H]2C[C@@H](O)CN2C(=O)[C@@H](NC(=O)CCOCCOCCOCCOCCOCCOCCOCCNC(=O)[C@]23CCC(C)(C)C[C@H]2C2=CC[C@@H]4[C@@]5(C)CC[C@H](O)C(C)(C)[C@@H]5CC[C@@]4(C)[C@]2(C)CC3)C(C)(C)C)cc1,Activity,[1],Active
same,Activity,HEK-293T,Toxic
same,Activity,[2],Active
Cc1ncsc1-c1ccc(CNC(=O)[C@@H]2C[C@@H](O)CN2C(=O)[C@@H](NC(=O)CCOCCOCCNC(=O)[C@]23CCC(C)(C)C[C@H]2C2=CC[C@@H]4[C@@]5(C)CC[C@H](O)C(C)(C)[C@@H]5CC[C@@]4(C)[C@]2(C)CC3)C(C)(C)C)cc1,Activity,[3],Dde
same,Activity,[4],50%
same,Activity,[5],Dde
Cc1ncsc1-c1ccc(CNC(=O)[C@@H]2C[C@@H](O)CN2C(=O)[C@@H](NC(=O)CCOCCNC(=O)[C@]23CCC(C)(C)C[C@H]2C2=CC[C@@H]4[C@@]5(C)CC[C@H](O)C(C)(C)[C@@H]5CC[C@@]4(C)[C@]2(C)CC3)C(C)(C)C)cc1,Activity,[3],Dde
same,Activity,[4],50%
same,Activity,[5],Dde
CC1(C)CC[C@]2(C(=O)NCCOCCOCCOCCNc3cccc4c3C(=O)N(C3CCC(=O)NC3=O)C4=O)CC[C@]3(C)C(=CC[C@@H]4[C@@]5(C)CC[C@H](O)C(C)(C)[C@@H]5CC[C@]43C)[C@@H]2C1 (some centres undefined),Activity,[6],> 50%
same,Activity,[7],20%
Cc1ncsc1-c1ccc(CNC(=O)[C@@H]2CCCN2C(=O)[C@@H](N)C(C)(C)C)cc1,Kd,[8],4.97 µM
Cc1ncsc1-c1ccc(CNC(=O)[C@@H]2C[C@@H](O)CN2C(=O)[C@@H](NC(=O)CCOCCOCCOCCOCCOCCOCCOCCOCCOCCOCCNC(=O)[C@]23CCC(C)(C)C[C@H]2C2=CC[C@@H]4[C@@]5(C)CC[C@H](O)C(C)(C)[C@@H]5CC[C@@]4(C)[C@]2(C)CC3)C(C)(C)C)cc1,Activity,HEK-293T,Toxic
Cc1ncsc1-c1ccc(CNC(=O)[C@@H]2CCCN2C(=O)[C@@H](NC(=O)CCOCCOCCOCCNC(=O)[C@]23CCC(C)(C)C[C@H]2C2=CC[C@@H]4[C@@]5(C)CC[C@H](O)C(C)(C)[C@@H]5CC[C@@]4(C)[C@]2(C)CC3)C(C)(C)C)cc1,bioavailability,[9],6.8%
same,Tmax,[10],0.5 h
same,half-life,[11],2.63 h
same,half-life,[12],2.87 h
same,Kd,[8],9.25 µM
same,Kd,Hemagglutinin,3.18 µM
same,AUC(0-inf),[13],7450 ng·h/mL
same,Activity,[3],Dde
same,Activity,[4],50%
same,DC50,[1],1.44 µM
same,Activity,[5],Dde
same,Activity,HEK-293T,85%
same,Activity,[14],Active
same,Activity,[15],Active
same,Activity,[16],60%
same,EC50,Influenza A virus [17],4.53 µM
same,EC50,Influenza A virus [18],5.98 µM
same,Activity,Influenza A virus [19],Active
same,EC50,Influenza A virus [20],8.98 µM
same,EC50,Influenza B virus,> 25 µM
same,Cmax,[21],2070 ng/mL
same,Cmax,[22],2070 ng/mL
same,AUC(0-inf),[23],2550 ng·h/mL
same,MRT,[24],0.98 h
same,MRT,[25],1.56 h
same,Activity,[26],Non-Toxic
same,Activity,[27],Non-Toxic
same,Activity,Influenza A virus [28],8.1 10^5PFU/g
same,Activity,Influenza A virus [29],Active
same,Activity,Influenza A virus [30],Active
same,fold change (FC),Influenza A virus [31],3.5
same,"viability at 36 h, 50 µM",[32],> 85%
same,Activity,Influenza A virus [33],Active
Cc1ncsc1-c1ccc(CNC(=O)[C@@H]2C[C@@H](O)CN2C(=O)[C@@H](NC(=O)CCOCCOCCOCCOCCOCCNC(=O)[C@]23CCC(C)(C)C[C@H]2C2=CC[C@@H]4[C@@]5(C)CC[C@H](O)C(C)(C)[C@@H]5CC[C@@]4(C)[C@]2(C)CC3)C(C)(C)C)cc1,Activity,HEK-293T,Toxic
CC1(C)CC[C@]2(C(=O)O)CC[C@]3(C)C(=CC[C@@H]4[C@@]5(C)CC[C@H](O)C(C)(C)[C@@H]5CC[C@]43C)[C@@H]2C1 [OLEANOLIC_ACID],IC50,Influenza A virus [34],> 200 µM
same,Kd,Hemagglutinin,10.9 µM
